Test results from patent publication US11427553B2, “Dihydrooxadiazinones” (Bayer Aktiengesellschaft, priority 2017, dated 2022).

How the values were obtained:
[1] = biological target: human full length PDE3B (Homo sapiens (Human), UniProt Q13370); assay: Assay 5 PDE3B enzyme inhibition (3H-cAMP SPA); format: biochemical; settings: Sf9 cell extract
Outline: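 Compounds in DMSO are mixed with diluted PDE3B extract from Sf9 cells, and reactions start on adding tritiated cAMP. After 60 min at room temperature, yttrium scintillation proximity beads terminate hydrolysis and signal is counted; IC50 values come from sigmoidal dose-response curves.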

[2] = system: HeLa cells; assay: Assay 1 cell proliferation measurement (CTG, 72 h), HeLa; format: cell-based, human; settings: Homo sapiens, HeLa; Assay 1, 72 h, Cell Titer Glo; read-out: HeLa IC50 [nM] (Cervical cancer)
Outline: (§1)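 CTG luminescence readout after 72 h compound exposure at 37 °C; 10-point 2.5-fold dilutions from 100 nM max final; DMSO 0.3% vehicle. IC50 from 4-parameter fit, normalised to 0 h plate (max inhibition) and DMSO (min inhibition).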

[3] = system: IGR37 cells; assay: Assay 1 cell proliferation measurement (CTG, 72 h), IGR37; format: cell-based; settings: Homo sapiens, IGR-37, Cell Titer Glo, read-out: IGR37 IC50 [nM] (melanoma)
[4] = system: SK-MEL-3 cells; assay: Assay 1 cell proliferation measurement (CTG, 72 h), SK-MEL-3; format: cell-based, human; settings: Homo sapiens, SK-MEL3; Assay 1, 72 h, Cell Titer Glo; read-out: SK-MEL-3 IC50 [nM] (melanoma)
Outline: as §1

[5] = biological target: human full length PDE3A (Homo sapiens (Human), UniProt Q14432); assay: Assay 4 PDE3A enzyme inhibition (3H-cAMP SPA); format: biochemical; settings: Sf9 cell extract
Outline: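 In this SPA format, the 60-min room-temperature reaction used 0.025 μCi [8-3H]cAMP and diluted full-length PDE3A from Sf9 cells. Percentage activity was plotted against log compound concentration to derive IC50.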

[6] = Assay 6 in vitro metabolic stability in cryopreserved human hepatocytes (CL, Fmax); format: in vitro ADME; settings: 1 μM test compound; for Clblood: hepatic in vivo blood clearance calculated (well-stirred) from half-life in cryopreserved human hepatocytes; for Fmax: maximal oral bioavailability calculated from half-life in cryopreserved human hepatocytes
Description: Assay 6 Method for Human Cryo Hepatocytes:
Investigation of In Vitro Metabolic Stability in Cryopreserved Human Hepatocytes (Including Calculation of Hepatic In Vivo Blood Clearance (CL) and Maximal Oral Bioavailability (Fmax))
Cryopreserved Hepatocytes (e.g. purchased from Celsis InVitroTechnologies) were briefly thawed, washed with 45 mL pre-warmed in in vitro GRO HT medium and centrifuged for 5 min at 50×g. The cell pellet was resuspended in 5 ml of Krebs-Henseleit […] (KHB). Cell viability was determined by trypan blue exclusion.
For the metabolic stability assay liver cells were distributed in WME containing 5% FCS to glass vials at a density of 1.0×10^6 vital cells/ml. The test compound was added to a final concentration of 1 μM. During incubation, the hepatocyte suspensions were continuously shaken at 580 rpm and aliquots were taken at 2, 8, 16, 30, 45 and 90 min, to which equal volumes of cold methanol were immediately added. Samples were frozen at −20° C. over night, after subsequently centrifuged for 15 minutes at 3000 rpm and the supernatant was analyzed with an Agilent 1290 HPLC-system with LCMS/MS detection.
The half-life of a test compound was determined from the concentration-time plot. From the half-life the intrinsic clearances were calculated. Together with the additional parameters liver blood flow, amount of liver cells in vivo and in vitro. The hepatic in vivo blood clearance (CL) and the maximal oral bioavailability (Fmax) was calculated.

Chain of human full length PDE3B (Q13370 whole entry): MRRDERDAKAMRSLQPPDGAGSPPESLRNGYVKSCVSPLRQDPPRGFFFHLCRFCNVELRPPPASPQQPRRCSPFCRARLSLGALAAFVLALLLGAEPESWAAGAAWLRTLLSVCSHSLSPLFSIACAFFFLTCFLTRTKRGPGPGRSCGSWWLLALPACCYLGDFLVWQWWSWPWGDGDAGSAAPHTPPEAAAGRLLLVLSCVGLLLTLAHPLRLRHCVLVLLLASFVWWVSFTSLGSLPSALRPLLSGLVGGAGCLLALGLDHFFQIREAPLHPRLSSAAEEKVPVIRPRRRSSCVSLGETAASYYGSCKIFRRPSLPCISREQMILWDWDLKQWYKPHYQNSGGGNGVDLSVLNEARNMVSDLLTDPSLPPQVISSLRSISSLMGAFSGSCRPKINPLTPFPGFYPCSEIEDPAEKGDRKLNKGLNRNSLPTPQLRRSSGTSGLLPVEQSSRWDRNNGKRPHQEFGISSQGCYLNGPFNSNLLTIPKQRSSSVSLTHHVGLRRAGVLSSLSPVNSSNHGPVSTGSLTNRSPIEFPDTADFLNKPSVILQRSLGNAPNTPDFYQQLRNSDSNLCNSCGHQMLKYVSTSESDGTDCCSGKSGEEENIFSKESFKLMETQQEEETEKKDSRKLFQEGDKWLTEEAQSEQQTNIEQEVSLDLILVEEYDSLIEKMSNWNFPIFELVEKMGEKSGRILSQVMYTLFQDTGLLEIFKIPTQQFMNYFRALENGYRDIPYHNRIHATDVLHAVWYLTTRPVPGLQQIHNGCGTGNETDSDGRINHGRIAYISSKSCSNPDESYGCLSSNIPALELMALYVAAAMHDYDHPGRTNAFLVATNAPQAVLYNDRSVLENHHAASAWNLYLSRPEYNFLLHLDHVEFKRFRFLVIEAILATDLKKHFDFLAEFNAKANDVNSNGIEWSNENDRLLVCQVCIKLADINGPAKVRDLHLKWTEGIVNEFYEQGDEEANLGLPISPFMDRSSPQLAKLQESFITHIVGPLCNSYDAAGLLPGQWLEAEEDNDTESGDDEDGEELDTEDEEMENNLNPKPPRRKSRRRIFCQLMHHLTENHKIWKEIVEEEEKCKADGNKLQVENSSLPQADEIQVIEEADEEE
Chain of human full length PDE3A (Q14432 whole entry): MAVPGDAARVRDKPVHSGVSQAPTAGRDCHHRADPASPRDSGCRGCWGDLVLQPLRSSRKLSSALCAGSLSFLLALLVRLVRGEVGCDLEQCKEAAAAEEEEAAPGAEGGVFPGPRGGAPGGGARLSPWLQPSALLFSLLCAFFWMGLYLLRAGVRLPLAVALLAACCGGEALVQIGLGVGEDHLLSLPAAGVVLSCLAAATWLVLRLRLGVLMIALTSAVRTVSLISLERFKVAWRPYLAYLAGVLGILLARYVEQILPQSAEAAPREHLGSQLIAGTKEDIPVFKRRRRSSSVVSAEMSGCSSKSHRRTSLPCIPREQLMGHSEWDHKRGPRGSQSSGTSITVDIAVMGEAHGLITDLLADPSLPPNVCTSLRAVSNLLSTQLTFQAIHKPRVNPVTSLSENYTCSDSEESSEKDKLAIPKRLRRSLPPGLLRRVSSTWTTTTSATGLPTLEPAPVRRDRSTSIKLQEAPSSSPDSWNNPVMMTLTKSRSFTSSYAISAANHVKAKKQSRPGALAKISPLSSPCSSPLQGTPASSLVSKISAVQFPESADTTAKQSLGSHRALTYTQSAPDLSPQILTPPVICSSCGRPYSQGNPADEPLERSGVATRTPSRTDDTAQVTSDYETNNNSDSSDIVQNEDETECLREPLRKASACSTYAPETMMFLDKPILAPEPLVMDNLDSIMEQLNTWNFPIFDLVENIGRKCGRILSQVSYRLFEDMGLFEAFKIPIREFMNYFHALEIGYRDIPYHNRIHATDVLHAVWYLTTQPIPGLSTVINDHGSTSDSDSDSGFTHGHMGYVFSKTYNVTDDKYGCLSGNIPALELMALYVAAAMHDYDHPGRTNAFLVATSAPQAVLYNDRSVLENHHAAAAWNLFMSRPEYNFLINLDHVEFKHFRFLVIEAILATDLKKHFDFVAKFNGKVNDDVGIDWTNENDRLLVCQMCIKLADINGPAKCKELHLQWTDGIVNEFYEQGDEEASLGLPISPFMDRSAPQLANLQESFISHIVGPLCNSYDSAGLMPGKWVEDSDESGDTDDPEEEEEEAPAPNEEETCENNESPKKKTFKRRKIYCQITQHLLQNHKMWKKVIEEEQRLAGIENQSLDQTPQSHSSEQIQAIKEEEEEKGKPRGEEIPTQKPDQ

| Structure (SMILES) | IC50 [1] [nM] | IC50 [2] [nM] | IC50 [4] [nM] | IC50 [5] [nM] | Clblood [6] [mL/min/kg] | Fmax [6] [%] | IC50 [3] [nM] |
| --- | --- | --- | --- | --- | --- | --- | --- |
| C[C@@H]1OC(=O)NN=C1c1ccc(-c2ccnc(N)c2)c(C(F)(F)F)c1 [Example 165, (6S)-5-[4-(2-Aminopyridin-4-yl)-3-(trifluoromethyl)phenyl]-6-methyl-3,6-dihydro-2H-1,3,4-oxadiazin-2-one] | 66 | 1 | 1 | 77 | 14.7 | 33 | 1 |
| O=C1NN=C(c2ccc(-c3ccccc3C(F)F)c(F)c2)CO1 [Example 161, 5-[2′-(Difluoromethyl)-2-fluoro[1,1′-biphenyl]-4-yl]-3,6-dihydro-2H-1,3,4-oxadiazin-2-one] | 49 | 6 | 10 | 66 | 9.17 | 59 | 12 |
| C[C@@H]1OC(=O)NN=C1c1ccc(-c2ccc(O)cc2)c(C(F)(F)F)c1 [Example 174, (6S)-5-[4′-Hydroxy-2-(trifluoromethyl)[1,1′-biphenyl]-4-yl]-6-methyl-3,6-dihydro-2H-1,3,4-oxadiazin-2-one] | 16 | 1 | 1 | 27 |  |  | 1 |
| C[C@@H]1OC(=O)NN=C1c1ccc(-c2ccncc2)c(C(F)(F)F)c1 [Example 166, (6S)-6-Methyl-5-[4-(pyridin-4-yl)-3-(trifluoromethyl)phenyl]-3,6-dihydro-2H-1,3,4-oxadiazin-2-one] | 42 | 1 | 1 | 69 |  |  | 1 |
| C[C@@H]1OC(=O)NN=C1c1ccc(-c2cnn(C(F)F)c2)c(C(F)(F)F)c1 [Example 190, (6S)-5-{4-[1-(Difluoromethyl)-1H-pyrazol-4-yl]-3-(trifluoromethyl)phenyl}-6-methyl-3,6-dihydro-2H-1,3,4-oxadiazin-2-one] | 25 | 0.2 | 0.4 | 38 | 15 | 32 | 0.4 |
| C[C@@H]1OC(=O)NN=C1c1cc(Cl)c(N2CCOCC2)c(C(F)(F)F)c1 [Example 121, (6S)-5-(-[(3-Chloro-4-(morpholin-4-yl)-5-(trifluoromethyl)phenyl)-)]-6-methyl-3,6-dihydro-2H-1,3,4-oxadiazin-2-one] | 299 | 5 | 10 | 150 | 2.17 | 90 | 12 |
| CC1OC(=O)NN=C1c1ccc(N2CCOCC2)c(C(F)(F)F)c1 (racemic) [Example 126, (rac)-6-Methyl-5-(4-morpholino-3-(trifluoromethyl)phenyl)-3,6-dihydro-2H-1,3,4-oxadiazin-2-one] | 8 | 1 | 1 | 12 |  |  | 2 |
| O=C1NN=C(c2ccc(-c3ccc(F)cc3)c(OC(F)(F)F)c2)CO1 [Example 76, 5-[4′-Fluoro-2-(trifluoromethoxy)biphenyl-4-yl]-3,6-dihydro-2H-1,3,4-oxadiazin-2-one] | 250 | 6 | 13 | 225 | 4.5 | 80 | 13 |
| CC1OC(=O)NN=C1c1ccc(-c2cnn(C(F)F)c2)c(C(F)(F)F)c1 (racemic) [Example 191, (rac)-5-{4-[1-(Difluoromethyl)-1H-pyrazol-4-yl]-3-(trifluoromethyl)phenyl}-6-methyl-3,6-dihydro-2H-1,3,4-oxadiazin-2-one] | 57 | 0.4 | 1 | 48 |  |  | 1 |

Now from value to compound, other results behind:

| IC50 [1] [nM] | IC50 [2] [nM] | IC50 [4] [nM] | IC50 [5] [nM] | Clblood [6] [mL/min/kg] | Fmax [6] [%] | Structure (SMILES) | IC50 [3] [nM] |
| --- | --- | --- | --- | --- | --- | --- | --- |
| 97 | 2 | 5 | 61 |  |  | CC1(C#N)CN(c2ccc(C3=NNC(=O)OC3)cc2C(F)(F)F)C1 [Example 251, 3-Methyl-1-[4-(2-oxo-3,6-dihydro-2H-1,3,4-oxadiazin-5-yl)-2-(trifluoromethyl)phenyl]azetidine-3-carbonitrile] | 4 |
| 120 | 2 | 6 | 320 |  |  | CC1OC(=O)NN=C1c1ccc(-c2ccc(F)cc2)c(C(F)(F)F)c1 (racemic) [Example 192, (rac)-5-[4′-Fluoro-2-(trifluoromethyl)[1,1′-biphenyl]-4-yl]-6-methyl-3,6-dihydro-2H-1,3,4-oxadiazin-2-one] | 7 |
| 240 | 27 | 49 | 79 |  |  | CNc1ccc(C2=NNC(=O)OC2)cc1C(F)(F)F [Example 276, 5-[4-(Methylamino)-3-(trifluoromethyl)phenyl]-3,6-dihydro-2H-1,3,4-oxadiazin-2-one] | 50 |
| 930 | 19 | 35 | > 1000 |  |  | C[C@@H]1OC(=O)NN=C1c1ccc(-n2cnc(C(F)(F)F)c2)c(C(F)(F)F)c1 [Example 266, (6S)-6-Methyl-5-{3-(trifluoromethyl)-4-[4-(trifluoromethyl)-1H-imidazol-1-yl]phenyl}-3,6-dihydro-2H-1,3,4-oxadiazin-2-one] | 65 |
| 790 | 15 | 31 | 810 |  |  | C[C@@H]1OC(=O)NN=C1c1ccc(CN2CCOCC2)c(C(F)(F)F)c1 [Example 196, (6S)-6-Methyl-5-{4-[(morpholin-4-yl)methyl]-3-(trifluoromethyl)phenyl}-3,6-dihydro-2H-1,3,4-oxadiazin-2-one] | 33 |
| 26 | 0.3 | 1 | 27 |  |  | N#CC1CCN(c2ccc(C3=NNC(=O)OC3)cc2C(F)(F)F)CC1 [Example 239, 1-[4-(2-Oxo-3,6-dihydro-2H-1,3,4-oxadiazin-5-yl)-2-(trifluoromethyl)phenyl]piperidine-4-carbonitrile] | 1 |
| 187 | 1 | 2 | 128 |  |  | O=C1NN=C(c2ccc(NCc3cnccn3)c(C(F)(F)F)c2)CO1 [Example 226, 5-[4-{[(Pyrazin-2-yl)methyl]amino}-3-(trifluoromethyl)phenyl]-3,6-dihydro-2H-1,3,4-oxadiazin-2-one] | 2 |
